# Test results published in patent publication US11285147B2, “Neuroprotective agents for treatment of neurodegenerative diseases” (WAYNE STATE UNIVERSITY, priority 2018, dated 2022).
# How the values were obtained:
# αSN (alpha synuclein) = αSN (alpha synuclein) (Homo sapiens, UniProt P37840); assay: Inhibition of αSN fibrillization, ThT fluorescence assay; assay type: biochemical
# Description: FIGS. 2A-B. (A) Inhibition of aSN fibrillization by D-687 and D-688. The drugs were incubated with aSN over a period of six days and the fibrilization was measured by ThT fluorescence assay. Data Values shown are means±SEMs of three independent experiments. (B) PC12 cells were treated with 10 μM prefabricated aSN aggregates formed in presence of drugs collected at day 0 and day 6. Values shown are means±SEMs of three independent experiments performed in 4-6 replicates. One way ANOVA analysis followed by Tukey's Multiple Comparison post hoc test were performed. (*p<0.01 compared to the control).
# We assessed the ability of our compounds, D-687 and D-688, to alter aggregation and cytotoxicity after co-incubating αSN with these drugs for 6 days followed by evaluation of ThT fluorescence activity and cell viability experiment with the PC12 cells. […] In order to maintain identical condition, cellular viability was determined by using samples from various experiments diluted to maintain a final concentration of 10 μM of αSN and 20 μM of drugs.
# FIG. 2 provides (A) Inhibition of aSN fibrillization by D-687 and D-688. The drugs were incubated with aSN over a period of six days and the fibrilization was measured by ThT fluorescence assay. Data Values shown are means±SEMs of three independent experiments. […]
# Aβ1-42 peptide = target: T1, Aβ1-42 peptide (Homo sapiens, UniProt P05067); assay: Inhibition of Aβ1-42 aggregation, ThT fluorescence; assay type: biochemical; details: Aβ1-42 10 μM, test compounds 20 μM, 24 h
# T1 construct: disaggregation activity of Aβ1-42 peptide
# T1 sequence (P05067 672-713 limits assumed): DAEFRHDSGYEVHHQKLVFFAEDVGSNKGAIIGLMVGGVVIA
# Description: (§1) FIGS. 3A and 3B. Inhibition and dissociation of Aβ1-42 oligomer formation by: a) ThT fluorescence of Aβ1-42 (10 μM) with or without incubation with test compounds (20 μM) for 24 h. The ThT fluorescence of Aβ1-42 at 0 h was taken as 100%. b) Aβ1-42 fibrils (10 μM) were incubated with test compounds (20 μM) for a period of 24 h. The ThT fluorescence of Aβ1-42 aggregates at 0 h was considered as 100%
# (§2) FIGS. 3A and 3B show inhibition and dissociation of Aβ1-42 oligomer formation by: a) ThT fluorescence of Aβ1-42 (10 μM) with or without incubation with test compounds (20 μM) for 24 h. The ThT fluorescence of Aβ1-42 at 0 h was taken as 100%. b) Aβ1-42 fibrils (10 μM) were incubated with test compounds (20 μM) for a period of 24 h. The ThT fluorescence of Aβ1-42 aggregates at 0 h was considered as 100%
# (§3) Similar to the effect of the drugs on α-syn, interaction of compounds with Aβ1-42 peptide clearly indicated a significant effect in inhibiting aggregation in a time dependent manner as indicated by decrease in ThT activity (FIG. 3a). Similarly, test compounds were able to decrease ThT activity of preformed Aβ aggregates in a time dependent manner, reflecting its effect in disrupting structure of aggregates (FIG. 3b). On the other hand, incubation of aggregates itself led to a gradual increase in ThT activity (FIG. 3b).
# Aβ1-42 fibrils = target: T2, Aβ1-42 fibrils (Homo sapiens, UniProt P05067); assay: Dissociation of preformed Aβ1-42 aggregates, ThT fluorescence; assay type: biochemical; details: Aβ1-42 fibrils 10 μM, test compounds 20 μM, 24 h
# T2 construct: disaggregation activity of Aβ1-42 peptide
# T2 sequence (P05067 672-713 limits assumed): as above
# Description: as §1, §2, §3
# D3 receptor = D3 receptor (UniProt P19020); assay type: binding; details: read-out: Ki (nM) D3, [3H]spiroperidol; cloned D3 in HEK-293 cells; mean ± SEM of 3-6 experiments
# D2L receptor = D2L receptor (Rattus norvegicus, UniProt P61169); assay: biochemical
# D2L receptor, sequence (P61169 whole entry): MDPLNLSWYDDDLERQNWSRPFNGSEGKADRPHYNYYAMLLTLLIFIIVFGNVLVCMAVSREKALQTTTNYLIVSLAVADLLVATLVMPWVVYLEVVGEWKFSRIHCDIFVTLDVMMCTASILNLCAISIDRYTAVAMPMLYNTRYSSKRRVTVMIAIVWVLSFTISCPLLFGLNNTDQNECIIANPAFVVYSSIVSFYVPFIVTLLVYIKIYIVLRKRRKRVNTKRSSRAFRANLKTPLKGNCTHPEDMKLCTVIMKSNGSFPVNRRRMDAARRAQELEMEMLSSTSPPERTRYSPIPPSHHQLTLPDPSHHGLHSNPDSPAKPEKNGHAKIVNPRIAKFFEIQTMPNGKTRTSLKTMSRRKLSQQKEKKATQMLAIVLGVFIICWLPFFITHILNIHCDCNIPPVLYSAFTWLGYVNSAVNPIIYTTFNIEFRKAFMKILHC
molecule,measurement,setting,value
"4′-[4-(2-Diisopropylamino-ethyl)-piperazin-1-yl]-biphenyl-3,4-diol [Compound D-687]",Inhibition of aggregation of aSN protein (overall conclusion),αSN (alpha synuclein),potently inhibited aggregation
same,Inhibition of aggregation of Aβ1-42 peptide,Aβ1-42 peptide,potently inhibited aggregation
same,Disaggregation of preformed Aβ1-42 aggregates,Aβ1-42 fibrils,disaggregate
"CCCN(CCc1cc(O)c(CCN(CCC)[C@H]2CCc3nc(N)sc3C2)cc1O)[C@H]1CCc2nc(N)sc2C1 [12 (D-673), 2,5-bis(2-(((S)-2-amino-4,5,6,7-tetrahydrobenzo[d]thiazol-6-yl)(propyl)amino)-ethyl)benzene-1,4-diol]",Ki,D3 receptor,6.87 ± 0.11 nM
same,Ki,D2L receptor,54.7 ± 3.3 nM
"CCN(CC)CCN1CCN(c2ccc(-c3ccc(O)c(O)c3)cc2)CC1 [Compound D690, 4′-[4-(2-Diethylamino-ethyl)-piperazin-1-yl]-biphenyl-3,4-diol]",Inhibition of aggregation of aSN protein (overall conclusion),αSN (alpha synuclein),potently inhibited aggregation
same,Inhibition of aggregation of Aβ1-42 peptide,Aβ1-42 peptide,potently inhibited aggregation
same,Disaggregation of preformed Aβ1-42 aggregates,Aβ1-42 fibrils,disaggregate
